{"source": "patent US7067500B2", "about": "“Betaines as adjuvants to susceptibility testing and antimicrobial therapy” (priority 1997, dated 2006)", "key": {"gram negative bacteria": {"system": "gram negative bacteria", "assay": "Antibiotic sensitivities of BACTEC 12B/PANTA contaminants (MicroScan panels)", "type": "cell-based", "conditions": "ceftazidime at 8 μg/ml; contaminants of CB-18 processed specimens on 12B/PANTA", "source_text": "Preliminary studies designed to assess the nature of contaminants breaking through the BACTEC 12B liquid media supplemented with PANTA used discarded respiratory specimens (n=277) from Quest Diagnostics—Baltimore. (NOTE: the BACTEC 12B liquid culture system is one of the standard methods in the art for culturing mycobacteria, and PANTA is an antimicobial supplement containing polymyxin B, azlocillin, nalidixic acid, trimethoprim, and amphotericin B: this culture system is referred to herein as “12B/PANTA” (Becton Dickinson, Cockeysville, Md.)) Specimens were collected and processed with CB-18 according to the procedure above. Approximately 400–500 μl of each sediment was planted on 12B/PANTA. All contaminants were identified by morphology and/or gram stain and then differentiated as either oxidase/catalase, positive or negative. Contaminants were then speciated, and antibiotic sensitivities determined, using MicroScan® panels (Dade, West Sacramento, Calif.)."}, "[1]": {"system": "M. tuberculosis isolates ATCC 27294, 571/573-BAL, 061-TBR, 52–96-BOL, and 57–96-BOL", "assay": "Antibiotic screen with additional antibiotics in the presence and absence of CB-18", "type": "cell-based, Mycobacterium tuberculosis", "conditions": "ceftazidime alone (absence of PANTA) at 16 μg/ml final", "method": "The experimental design of FIG. 16 was also used to examine the breadth of the CB-18 effect with respect to other, non-β-lactam antibiotics. In these experiments antibiotics (Sigma, St. Louis, Mo.) were manufactured as stock solutions in water or buffer and then diluted with reconstitution fluid and added to the culture bottles prior to inoculation. Nystatin (100 μg/ml final), polymixin B (300 units final), erthromycin (4 μg/ml final), oleandomycin (2 μg/ml final), penicillin G (8 μg/ml final), nalidixic acid (30 μg/ml final), lincomycin (2 μg/ml final), ceftriaxone (32 μg/ml final), and ceftazidime (16 μg/ml final) (ceftazidime was manufactured in 10% sodium bicarbonate) were tested on ATCC 27294, 571/573-BAL, 061-TBR, 52–96-BOL, and 57–96-BOL. All experiments used R.F. and P-caz as controls, and all bottles wherein CB-18 was added used a final concentration of 17 μg/ml. FIG. 28 presents the results of the 571/573-BAL isolate with erythromycin and ceftriaxone. FIG. 29 presents the results of the 061-TBR isolate with polymyxin B, oleandomycin, lincomycin, naldixic acid, penicillin G, and ceftriaxone. FIG. 30 presents the results of the 57–96-BOL isolate with naldixic acid, penicillin G, ceftazidime and ceftriaxone."}}}
{"smiles": "CC(C)(O/N=C(\\C(=O)N[C@@H]1C(=O)N2C(C(=O)[O-])=C(C[n+]3ccccc3)CS[C@H]12)c1csc(N)n1)C(=O)O", "note": "[ceftazidime]", "values": [{"measurement": "gram negative bacteria sensitive to ceftazidime", "setting": "gram negative bacteria", "value": "40 of the 48"}, {"measurement": "effect on isolates relative to other antibiotics tested", "setting": "[1]", "value": "one of the least innocuous compounds"}]}
